According to patent publication US9926282B2, “Phthalazinones and isoquinolinones as rock inhibitors” (BRISTOL-MYERS SQUIBB COMPANY, priority 2013, dated 2018):
pIC50: −log10 of the molar value.

How the values were obtained:
[1] = target: ROCK2 (Homo sapiens (Human), UniProt O75116); assay: ROCK assay (LABCHIP peptide phosphorylation), ROCK2; type: biochemical; details: 5 μM ATP, 1.5 μM peptide substrate
[2] = target: ROCK1 (Homo sapiens (Human), UniProt Q13464); assay: ROCK assay (LABCHIP peptide phosphorylation), ROCK1; type: biochemical; details: 5 μM ATP, 1.5 μM peptide substrate; read-out: ROCK1 IC50
ROCK1, sequence (Q13464 whole entry, species assumed): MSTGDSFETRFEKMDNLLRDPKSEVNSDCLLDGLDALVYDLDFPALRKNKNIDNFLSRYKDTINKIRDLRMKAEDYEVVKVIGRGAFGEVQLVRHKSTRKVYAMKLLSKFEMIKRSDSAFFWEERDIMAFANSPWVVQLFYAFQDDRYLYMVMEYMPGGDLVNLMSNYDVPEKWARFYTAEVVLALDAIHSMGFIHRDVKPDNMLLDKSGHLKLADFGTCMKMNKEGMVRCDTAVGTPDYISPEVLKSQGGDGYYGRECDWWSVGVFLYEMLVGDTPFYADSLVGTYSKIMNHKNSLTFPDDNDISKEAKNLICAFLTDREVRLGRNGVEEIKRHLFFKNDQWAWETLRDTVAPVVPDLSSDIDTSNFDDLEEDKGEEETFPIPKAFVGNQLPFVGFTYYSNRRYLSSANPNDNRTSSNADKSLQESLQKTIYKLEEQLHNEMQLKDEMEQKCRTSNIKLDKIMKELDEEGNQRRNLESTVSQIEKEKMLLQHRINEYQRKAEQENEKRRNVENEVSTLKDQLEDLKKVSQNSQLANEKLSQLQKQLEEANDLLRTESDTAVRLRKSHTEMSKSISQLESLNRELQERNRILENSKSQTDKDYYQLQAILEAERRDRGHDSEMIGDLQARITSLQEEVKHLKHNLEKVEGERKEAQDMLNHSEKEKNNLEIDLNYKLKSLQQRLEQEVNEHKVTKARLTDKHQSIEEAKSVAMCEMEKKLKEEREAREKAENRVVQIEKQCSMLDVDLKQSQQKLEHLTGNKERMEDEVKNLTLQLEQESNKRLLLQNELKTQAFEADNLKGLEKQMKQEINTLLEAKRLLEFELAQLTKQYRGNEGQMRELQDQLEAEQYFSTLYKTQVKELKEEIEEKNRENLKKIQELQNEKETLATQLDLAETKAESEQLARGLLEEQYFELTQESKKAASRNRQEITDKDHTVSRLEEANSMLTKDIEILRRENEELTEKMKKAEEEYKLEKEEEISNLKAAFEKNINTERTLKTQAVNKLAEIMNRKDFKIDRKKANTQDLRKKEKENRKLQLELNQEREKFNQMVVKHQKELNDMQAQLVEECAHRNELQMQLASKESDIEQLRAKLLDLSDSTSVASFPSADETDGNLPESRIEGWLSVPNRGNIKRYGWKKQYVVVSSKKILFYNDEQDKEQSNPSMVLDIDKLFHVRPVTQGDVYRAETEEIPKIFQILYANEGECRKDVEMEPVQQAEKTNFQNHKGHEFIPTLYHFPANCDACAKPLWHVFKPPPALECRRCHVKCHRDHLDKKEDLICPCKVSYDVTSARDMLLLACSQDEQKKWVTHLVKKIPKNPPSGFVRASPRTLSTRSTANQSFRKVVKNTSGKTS

ROCK2, sequence (O75116 whole entry, species assumed): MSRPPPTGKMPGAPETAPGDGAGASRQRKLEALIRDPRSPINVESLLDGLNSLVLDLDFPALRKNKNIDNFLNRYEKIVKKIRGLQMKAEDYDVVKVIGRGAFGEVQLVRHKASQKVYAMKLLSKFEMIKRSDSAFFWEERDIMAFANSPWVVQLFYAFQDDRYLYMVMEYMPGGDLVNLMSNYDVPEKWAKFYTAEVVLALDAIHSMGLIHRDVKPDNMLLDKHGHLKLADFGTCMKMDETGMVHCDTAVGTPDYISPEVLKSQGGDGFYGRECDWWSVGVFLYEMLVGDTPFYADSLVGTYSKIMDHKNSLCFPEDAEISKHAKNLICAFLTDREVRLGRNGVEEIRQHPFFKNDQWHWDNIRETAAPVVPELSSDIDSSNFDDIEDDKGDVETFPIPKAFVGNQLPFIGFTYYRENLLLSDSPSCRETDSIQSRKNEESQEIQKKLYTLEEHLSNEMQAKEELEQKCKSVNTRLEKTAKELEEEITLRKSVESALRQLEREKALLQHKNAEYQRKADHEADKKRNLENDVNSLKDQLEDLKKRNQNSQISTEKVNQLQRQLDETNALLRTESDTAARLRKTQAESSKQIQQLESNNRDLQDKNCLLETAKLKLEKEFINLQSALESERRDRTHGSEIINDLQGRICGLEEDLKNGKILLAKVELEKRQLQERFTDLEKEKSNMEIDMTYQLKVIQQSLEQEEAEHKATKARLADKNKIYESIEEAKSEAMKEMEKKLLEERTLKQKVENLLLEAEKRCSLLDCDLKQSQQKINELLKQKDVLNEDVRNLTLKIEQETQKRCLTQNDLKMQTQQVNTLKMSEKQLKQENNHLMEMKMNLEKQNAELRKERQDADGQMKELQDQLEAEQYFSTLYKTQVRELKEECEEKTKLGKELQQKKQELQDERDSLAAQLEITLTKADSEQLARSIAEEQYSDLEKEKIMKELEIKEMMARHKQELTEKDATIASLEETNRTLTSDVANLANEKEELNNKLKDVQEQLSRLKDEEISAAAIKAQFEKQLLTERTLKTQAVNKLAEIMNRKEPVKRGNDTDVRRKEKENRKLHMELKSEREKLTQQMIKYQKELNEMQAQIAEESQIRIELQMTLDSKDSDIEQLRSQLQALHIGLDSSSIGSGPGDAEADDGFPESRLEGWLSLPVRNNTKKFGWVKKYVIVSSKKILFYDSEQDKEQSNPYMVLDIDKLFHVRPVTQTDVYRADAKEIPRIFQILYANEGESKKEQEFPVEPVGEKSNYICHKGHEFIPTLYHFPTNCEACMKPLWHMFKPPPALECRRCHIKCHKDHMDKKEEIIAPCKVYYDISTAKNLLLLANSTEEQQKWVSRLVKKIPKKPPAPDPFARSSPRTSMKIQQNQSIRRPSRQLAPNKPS

pIC50 [1]	pIC50 [2]	Compound
7.00 to 10.00	7.00 to 10.00	O=C(Nc1ccc(-c2n[nH]c(=O)c3ccccc23)cc1)c1cnn(-c2ccccc2Cl)c1 [Example 220, 1-(2-chlorophenyl)-N-[4-(4-oxo-3,4-dihydrophthalazin-1-yl)phenyl]-1H-pyrazole-4-carboxamide]
6.00 to 7.00	6.00 to 7.00	CC(C)c1c(C(=O)Nc2ccc(-c3n[nH]c(=O)c4ccccc34)cc2)nnn1-c1ccccc1 [Example 221, N-[4-(4-oxo-3,4-dihydrophthalazin-1-yl)phenyl]-1-phenyl-5-(propan-2-yl)-1H-1,2,3-triazole-4-carboxamide]
7.00 to 10.00	7.00 to 10.00	Cc1c(C(=O)Nc2ccc(-c3n[nH]c(=O)c4ccccc34)cc2)nnn1-c1ccccc1F [Example 222, 1-(2-fluorophenyl)-5-methyl-N-[4-(4-oxo-3,4-dihydrophthalazin-1-yl)phenyl]-1H-1,2,3-triazole-4-carboxamide]
7.00 to 10.00	7.00 to 10.00	Cc1noc(-c2ccc(C(C)(C)O)cc2)c1C(=O)Nc1ccc(-c2n[nH]c(=O)c3ccccc23)cc1 [Example 223, 5-[4-(2-hydroxypropan-2-yl)phenyl]-3-methyl-N-[4-(4-oxo-3,4-dihydrophthalazin-1-yl)phenyl]-1,2-oxazole-4-carboxamide]
7.00 to 10.00	7.00 to 10.00	Cc1noc(-c2ccc(CO)cc2)c1C(=O)Nc1ccc(-c2n[nH]c(=O)c3ccccc23)cc1 [Example 224, 5-[4-(hydroxymethyl)phenyl]-3-methyl-N-[4-(4-oxo-3,4-dihydrophthalazin-1-yl)phenyl]-1,2-oxazole-4-carboxamide]
7.00 to 10.00	7.00 to 10.00	O=C(Nc1ccc(-c2n[nH]c(=O)c3ccccc23)cc1)c1ccn(-c2ccccc2)n1 [Example 226, N-[4-(4-oxo-3,4-dihydrophthalazin-1-yl)phenyl]-1-phenyl-1H-pyrazole-3-carboxamide]
7.00 to 10.00	6.00 to 7.00	Cn1ccc(C(=O)Nc2ccc(-c3n[nH]c(=O)c4ccccc34)cc2)n1 [Example 227, 1-methyl-N-[4-(4-oxo-3,4-dihydrophthalazin-1-yl)phenyl]-1H-pyrazole-3-carboxamide]
7.00 to 10.00	7.00 to 10.00	Cc1nn(-c2ccccc2)cc1C(=O)Nc1ccc(-c2n[nH]c(=O)c3ccccc23)cc1 [Example 228, 3-methyl-N-[4-(4-oxo-3,4-dihydrophthalazin-1-yl)phenyl]-1-phenyl-1H-pyrazole-4-carboxamide]
7.00 to 10.00	7.00 to 10.00	CCCc1cc(C(=O)Nc2ccc(-c3n[nH]c(=O)c4ccccc34)cc2)nn1C [Example 229, 1-methyl-N-[4-(4-oxo-3,4-dihydrophthalazin-1-yl)phenyl]-5-propyl-1H-pyrazole-3-carboxamide]
7.00 to 10.00	7.00 to 10.00	O=C(Nc1ccc(-c2n[nH]c(=O)c3ccccc23)cc1)c1c[nH]c(-c2ccccc2)n1 [Example 230, N-[4-(4-oxo-3,4-dihydrophthalazin-1-yl)phenyl]-2-phenyl-1H-imidazole-4-carboxamide]
7.00 to 10.00	6.00 to 7.00	CCCc1c(C(=O)Nc2ccc(-c3n[nH]c(=O)c4ccccc34)cc2)nnn1-c1ccccc1 [Example 231, N-[4-(4-oxo-3,4-dihydrophthalazin-1-yl)phenyl]-1-phenyl-5-propyl-1H-1,2,3-triazole-4-carboxamide]
7.00 to 10.00	6.00 to 7.00	Cc1c(C(=O)Nc2ccc(-c3n[nH]c(=O)c4ccccc34)cc2)nnn1-c1cccc(C(F)(F)F)c1 [Example 232, 5-methyl-N-[4-(4-oxo-3,4-dihydrophthalazin-1-yl)phenyl]-1-[3-(trifluoromethyl)phenyl]-1H-1,2,3-triazole-4-carboxamide]

More lines, now with the values behind:

Compound	pIC50 [1]	pIC50 [2]
Cc1cc(C(=O)Nc2ccc(-c3n[nH]c(=O)c4ccccc34)cc2)nn1Cc1ccccc1 [Example 208, 1-benzyl-5-methyl-N-[4-(4-oxo-3,4-dihydrophthalazin-1-yl)phenyl]-1H-pyrazole-3-carboxamide]	7.00 to 10.00	7.00 to 10.00
Cc1cccc(N2CCC(C(=O)Nc3ccc(-c4n[nH]c(=O)c5ccccc45)cc3)C2=O)c1 (stereo not drawn) [Example 209, 1-(3-methylphenyl)-2-oxo-N-[4-(4-oxo-3,4-dihydrophthalazin-1-yl)phenyl]pyrrolidine-3-carboxamide]	6.00 to 7.00	6.00 to 7.00
Cc1ccc(N2CC(C(=O)Nc3ccc(-c4n[nH]c(=O)c5ccccc45)cc3)CC2=O)cc1 (stereo not drawn) [Example 210, 1-(4-methylphenyl)-5-oxo-N-[4-(4-oxo-3,4-dihydrophthalazin-1-yl)phenyl]pyrrolidine-3-carboxamide]	6.00 to 7.00	6.00 to 7.00
O=C(Nc1ccc(-c2n[nH]c(=O)c3ccccc23)cc1)C1CC(=O)N(c2cccc(Cl)c2F)C1 (stereo not drawn) [Example 211, 1-(3-chloro-2-fluorophenyl)-5-oxo-N-[4-(4-oxo-3,4-dihydrophthalazin-1-yl)phenyl]pyrrolidine-3-carboxamide]	6.00 to 7.00	4.30 to 6.00
Cn1cc(C(=O)Nc2ccc(-c3n[nH]c(=O)c4ccccc34)cc2)cn1 [Example 212, 1-methyl-N-[4-(4-oxo-3,4-dihydrophthalazin-1-yl)phenyl]-1H-pyrazole-4-carboxamide]	7.00 to 10.00	6.00 to 7.00
Cc1cc(C(=O)Nc2ccc(-c3n[nH]c(=O)c4ccccc34)cc2)nn1-c1ccccc1 [Example 213, 5-methyl-N-[4-(4-oxo-3,4-dihydrophthalazin-1-yl)phenyl]-1-phenyl-1H-pyrazole-3-carboxamide]	7.00 to 10.00	7.00 to 10.00
Cc1ccccc1-n1ncc(C(=O)Nc2ccc(-c3n[nH]c(=O)c4ccccc34)cc2)c1C [Example 214, 5-methyl-1-(2-methylphenyl)-N-[4-(4-oxo-3,4-dihydrophthalazin-1-yl)phenyl]-1H-pyrazole-4-carboxamide]	7.00 to 10.00	7.00 to 10.00
O=C(Nc1ccc(-c2n[nH]c(=O)c3ccccc23)cc1)C1CCN(c2ccccc2)C1=O (stereo not drawn) [Example 215, 2-oxo-N-[4-(4-oxo-3,4-dihydrophthalazin-1-yl)phenyl]-1-phenylpyrrolidine-3-carboxamide]	6.00 to 7.00	6.00 to 7.00
COc1ccccc1N1CCC(C(=O)Nc2ccc(-c3n[nH]c(=O)c4ccccc34)cc2)C1=O (stereo not drawn) [Example 216, 1-(2-methoxyphenyl)-2-oxo-N-[4-(4-oxo-3,4-dihydrophthalazin-1-yl)phenyl]pyrrolidine-3-carboxamide]	6.00 to 7.00	4.30 to 6.00
O=C(Nc1ccc(-c2n[nH]c(=O)c3ccccc23)cc1)C1CC(=O)N(c2ccccc2)C1 (stereo not drawn) [Example 217, 5-oxo-N-[4-(4-oxo-3,4-dihydrophthalazin-1-yl)phenyl]-1-phenylpyrrolidine-3-carboxamide]	6.00 to 7.00	4.30 to 6.00
CC(C)N1CC(C(=O)Nc2ccc(-c3n[nH]c(=O)c4ccccc34)cc2)CC1=O (stereo not drawn) [Example 218, 5-oxo-N-[4-(4-oxo-3,4-dihydrophthalazin-1-yl)phenyl]-1-(propan-2-yl)pyrrolidine-3-carboxamide]	6.00 to 7.00	4.30 to 6.00
Cc1nn(-c2ccccc2)c(C)c1C(=O)Nc1ccc(-c2n[nH]c(=O)c3ccccc23)cc1 [Example 219, 3,5-dimethyl-N-[4-(4-oxo-3,4-dihydrophthalazin-1-yl)phenyl]-1-phenyl-1H-pyrazole-4-carboxamide]	7.00 to 10.00	7.00 to 10.00
